Patent publication US20210260106A1, “CHLORITE-CONTAINING COMPOSITIONS” (ClearCrescent Technologies, LLC, priority 2008, published 2021)
≈ marks a conversion by molar mass, not a printed value. Where two headings read alike, the source gives them in different places.

Experiments:
Treatment of dog wound = assay type: in vivo; settings: rear leg
From the text: Dog was occasionally limping and favoring his rear leg. A 2-inch diameter area of raw red moist skin was observed where hair had fallen out. Upon close inspection a 1,½ inch suppurating cut was observed which created a dark line leading to a 1 cm×2 cm section of blackened skin. Dog had been topically treated with Triamcinolone Acetonide and bandaged previously to no effect.
The ratio was 1:1. At the second and third interval Neosporin™ was mixed in hand with other compositions in a 1:1:1 ratio. Dog was not observed to lick wound.

human cells = settings: Ingram et al 2004; cited from earlier work
[1] = system: Trichophyton rubrum ATCC MYA 4438; assay: MIC study in broth culture, sodium chlorite and itraconazole; assay type: cell-based; settings: for MIC: Trichophyton rubrum, read-out: amount of Itraconazole required to inhibit the fungus (MIC)
Protocol: As shown in the examples, in vitro data was generated and the minimum inhibitory concentrations (MIC) tests were determined in broth culture using ATCC MYA 4438. Itraconazole is the azole used in the study. […] On the X-axis are dilutions of itraconazole. Fungal Growth is noted by a + and lack of growth by a −.
Referring to FIG. 18, the experiments were repeated with the strain Trichophyton rubrum.

[2] = system: Trichophyton mentagrophytes ATCC MYA 4439; assay: as above; assay type: cell-based; settings: for MIC: Trichophyton mentagrophytes, read-out: amount of Itraconazole required to inhibit the fungus (MIC)
[3] = assay type: in vivo, human
From the text: Compositions were topically applied to various skin and nail conditions. […] The solution was applied by dropper to affected areas, or combined with a bioactive agent and then applied to the affected area or applied sequentially to the affected area at least once daily, preferably twice daily during treatment period. […] Background: A subject was diagnosed with Dyshidrosis in March of 2012. Symptoms included small blisters on the palms of their hands and the underside of their fingers with scaling. […] They abandoned the treatment. Symptoms continued. They occasionally self-treated the condition with over the counter Lamisil. […] Treatment: […]

[4] = system: onychomycosis; fungal infections of the skin and nails; assay: Azole antifungals tested on fungal infections of skin and nails; parameters: species or system human; settings: in vivo
[5] = Topical treatment of psoriasis, divided elbow, one subject; assay type: in vivo, human; settings: for Result after 3 days treated twice daily: elbow section
From the text: Background: A subject suffered from Psoriasis diagnosed […]. They have not undergone treatment for their condition since 1996. They report rash after bathing that turns to white plaques with scaling within days. Treatment 1: […] They then distributed the combination to the entire affected right lateral section of their elbow. Treatment 2: […] They then distributed the combination to the entire affected outside lateral section. Treatment 3: […] They then distributed the combination to the entire affected interior lateral section.

[6] = Topical treatment of psoriasis on chin and face; assay type: in vivo, human; settings: three days twice daily
Protocol: Patient was treated on the chin for three days twice daily. On their right side of the chin, sodium chlorite solution was applied alone.
They applied SC combined with CCT's herbal treatment to their right side of their chin. SC+ a composition containing 3.66 g thymol, 3.66 g menthol, 3.66 g menthyl acetate in 100 ml grapeseed oil with 0.25 ounce beeswax.

[7] = system: dermataphytes that cause tinea pedis and onychomycosis
Candida albicans = settings: at 0.5%

Protocol for Candidia albicans: An in vitro determination of the use of sodium chlorite on human tissue culture and broth culture of Candidia albicans was performed.

Question: With `CC1(C)O[C@@H]2C[C@H]3[C@@H]4CCC5=CC(=O)C=C[C@]5(C)[C@@]4(F)[C@@H](O)C[C@]3(C)[C@]2(C(=O)CO)O1` [Triamcinolone Acetonide] as the compound, how does the wound outcome (Treatment of dog wound) read?
Answer: no effect

Question: Which “concentration shown to be non-toxic to human cells” value (human cells) does the source give for chlorite ions here?
Answer: 100 ppm

Question: Which MIC ([1]; combined with sodium chlorite) does the source give for `CCC(C)n1ncn(-c2ccc(N3CCN(c4ccc(OCC5COC(Cn6cncn6)(c6ccc(Cl)cc6Cl)O5)cc4)CC3)cc2)c1=O` (stereo not shown) [Itraconazole, itraconazole] here?
Answer: < 0.03 µg/mL

Question: What about the MIC ([1]; itraconazole alone) of the same compound?
Answer: 0.06 µg/mL (≈ 0.085 µM)

Question: And the “decrease of itraconazole MIC” value ([1]; combined with sodium chlorite)?
Answer: at least 2 fold

Question: And the MIC ([2]; combined with sodium chlorite)?
Answer: < 0.03 µg/mL

Question: And the MIC ([2]; itraconazole alone)?
Answer: 0.125 µg/mL (≈ 0.177 µM)

Question: And the “decrease of itraconazole MIC” value ([2]; combined with sodium chlorite)?
Answer: at least 4 fold

Question: Which results are given for `CN(C/C=C/C#CC(C)(C)C)Cc1cccc2ccccc12` [Lamisil]?
Answer: local tolerance of earlier treatment ([3]; human, in vivo): stinging; result of earlier treatment of the subject's Dyshidrosis ([3]; subject's history before the study): no significant amelioration of symptoms

Question: Which “effectiveness against fungal infection of nails/skin” value [4] does the source give for `CC(=O)N1CCN(c2ccc(OCC3COC(Cn4ccnc4)(c4ccc(Cl)cc4Cl)O3)cc2)CC1` (stereo not shown) [Ketaconazole] here?
Answer: excellent results

Question: With `C=C1CCN([C@H](C)[C@](O)(Cn2cncn2)c2ccc(F)cc2F)CC1` [10% efinaconazole, efinaconazole] as the compound, how does the “Result after 3 days treated twice daily” value [5] read?
Answer: Rash and white scaling

Question: What about the “Result after 3 days treated twice daily” value ([5]; listed as efinaconazole) of the same compound?
Answer: white dry scales and evidence of rash

Question: With sodium chlorite as the compound, how does the “recurrence of psoriasis symptoms in treated area of chin, 92 days later” value [6] read?
Answer: no recurrence of psoriasis symptoms

Question: And the “effective concentration when combined with azole antifungals” value ([7]; combined with antifungals in the azole group)?
Answer: ≥ 0.015%

Question: What about the “effective concentrations alone against dermataphytes” value ([7]; sodium chlorite alone, broth culture and in vivo) of the same compound?
Answer: 0.25-4%

Question: What about the “drop of sodium chlorite's MIC” value ([1]; combined with itraconazole) of the same compound?
Answer: eight-fold

Question: What about the “effect on Candida albicans on agar plates” value (Candida albicans) of the same compound?
Answer: kills Candida albicans rather than simply inhibiting its growth

Question: And the “drop of sodium chlorite's MIC” value ([2]; combined with itraconazole)?
Answer: two-fold

Question: And the Candidia albicans killing (Candidia albicans; 0.5% sodium chlorite in culture broth)?
Answer: effective in killing

Question: And the Candidia albicans killing (Candidia albicans; 0.5% sodium chlorite in culture broth, listed as Sodium Chlorite)?
Answer: Yes

Question: What about the Candidia albicans killing (Candidia albicans; 2.0% sodium chlorite in culture broth) of the same compound?
Answer: effective in killing

Question: And the Candidia albicans killing (Candidia albicans; 2.0% sodium chlorite in culture broth, listed as Sodium Chlorite)?
Answer: Yes

Question: And the “toxicity against Candidas albicans” value (Candidia albicans; at 0.5%)?
Answer: 100%

Question: What about the “regrowth of Candidia albicans” value (Candidia albicans; continued culture without sodium chlorite) of the same compound?
Answer: did not result in regrowth

Question: What about the “side by side comparison with standard antifungal agent in vitro” value (Candidia albicans; versus fluconazole) of the same compound?
Answer: significantly superior results compared to fluconazole

Question: Which “psoriasis symptoms two days later” value ([5]; Treatment 3, elbow section) does the source give for `Clc1ccccc1C(c1ccccc1)(c1ccccc1)n1ccnc1` [1% Clotrimazole cream, Clotrimazole] here?
Answer: White dry scales were not perceived and the rash was less apparent

Question: What about the “Result after 3 days treated twice daily” value [5] of the same compound?
Answer: plaques are not present

Question: Which results are given for `N#C/C(=C1/SC[C@@H](c2ccc(Cl)cc2Cl)S1)n1ccnc1` [1% Luliconazole cream, luliconazole]?
Answer: psoriasis symptoms one day later ([5]; Treatment 2, elbow section): White dry scales were perceived though the rash was less apparent; Result after 3 days treated twice daily [5]: Red Rash and scaling; Result after 3 days treated twice daily ([5]; listed as Luliconazole): red rash and plaques were present
